Results taken from patent publication US20200352912A1, “ANTIMICROBIAL COMPOSITIONS AND METHODS OF USING THE SAME” (The Board Of Supervisors Of Louisiana State University And …, priority 2018, published 2020).

Legend:
HCA-7 colon cancer cells = conditions: 10 μM; cited from earlier work
S. aureus strain 43300 = assay: hemolysis assay; type: cell-based, Staphylococcus aureus
Description: (A) Macroscopic analysis of S. aureus hemolytic activity. S. aureus was spotted on Mueller-Hinton agar containing sheep blood and/or various concentrations of L-161, 982, and incubated at 37 C for 24 h (0, 25 50, 100) or 72 h (200). (B) Width of the zone of RBC clearance was measured at 4 points around each S. aureus area of growth in 2 independent replicates. * p<0.05 control vs. drug-treated.
Strains and growth conditions. The methicillin-resistant S. aureus strain NRS383 was obtained from the Network on Antimicrobial Resistance in S. aureus (NARSA) data bank. As NRS383 has little or no hemolytic activity or pigmentation, S. aureus strain 43300 (ATCC) was used for the hemolysis and staphyloxanthin assays. Frozen stocks were obtained at −80° C. and streaked onto trypticase soy agar (TSA) plates at 37° C. prior to use. A single colony was transferred to 10 ml of trypticase soy broth (TSB) and shaken at 37° C. overnight. […]
Hemolysis Assay. Hemolytic activity was measured using Mueller-Hinton agar plates containing 5% defribinated sheep blood (Thermo Fisher)+/−L-161, 982 at a final concentration of 50 μg/ml. […] Plates were placed on a light box and digitally photographed and images were analyzed using Photoshop CS3. […] The width of each zone was measured at 0, 90, 180, 270° around growth spots (2-3 spots/group) using the ruler tool. […]

[1] = test system: C. albicans mono-species biofilm; assay: biofilm formation on polystyrene (XTT, CFU); type: cell-based, Candida albicans; conditions: treated vs untreated mono-species biofilms
Description: (§1) The effect of L-161,982 on biofilm formation was tested. Mono- and dual-species C. albicans and/or S. aureus biofilms were grown on 96-well plates for 24 h with the indicated concentration of L-161, 982. After incubation, metabolic activity of biofilms was quantified by the XTT assay (A) and then biofilms were disrupted to determine live colony forming units (CFU) (B). The results are cumulative of three independent experiments with duplicate samples. Statistics was performed using One-way ANOVA with the Tukey post-hoc test for the XTT assay. The Mann-Whitney U test was used to analyze CFU data. Significance is indicated as follows: ns—not significant, *P<0.05; *** P<0.001. Error bars represent standard deviation.
Following growth as described above, microbes were washed in phosphate-buffered saline (PBS) by centrifugation, counted on a hemocytometer, and adjusted to 2×10^7 CFU/ml in RPMI buffered with MOPS (165 mM). […]
(§2) The XTT reduction assay was used to determine the metabolic activity of biofilms following treatment with L-161, 982 (17). Briefly, wells were washed once in PBS, and plates incubated at 37° C. for 2 h with 200 μl XTT working reagent (0.5 mg/ml XTT and 1 μM Menadione) and the resulting absorbance measured at 490 nm on a microplate spectrophotometer. […]

S. aureus = assay: ATP detection assay (BacTiter-Glo); type: cell-based, Staphylococcus aureus; conditions: 12.5-200 μg/ml, 5 h
Description: S. aureus was incubated with various concentrations of L-161,982 in a 96-well plate in triplicate for 5 h at 37° C. ATP production was measured in samples normalized to viable cell number using the BacTiter-Glo™ Assay (Promega) and measuring luminescence. Background luminescence from media alone samples was subtracted from experimental samples. Results represent the means+/−standard deviation. Data shown are representative of two independent experiments. ** p<0.01; *** p<0.001 control vs drug-treated.
ATP detection assay. S. aureus was diluted 100-fold in 10 ml of fresh Mueller Hinton II broth which was used as the inoculum. The inoculum was incubated with various concentrations of L-161,982 (12.5-200 μg/ml) in a 96-well plate in triplicate for 5 h at 37° C. After incubation, cells L-161,982 were stained with LIVE/DEAD Baclight bacterial viability stain (Invitrogen) and viable cells were counted. Samples were normalized to viable cell number before transferring to an opaque-walled 96-well plate. An equal volume of BacTiter-Glo™ Reagent (Promega) was added. The plate was allowed to develop for 5 min at room temperature. Luminescence was quantified using a BioTek Synergy 2 plate reader. A media alone control was used to detect background luminescence.

DP = DP (Homo sapiens, UniProt Q13258); conditions: cited from earlier work
DP, sequence (Q13258 whole entry): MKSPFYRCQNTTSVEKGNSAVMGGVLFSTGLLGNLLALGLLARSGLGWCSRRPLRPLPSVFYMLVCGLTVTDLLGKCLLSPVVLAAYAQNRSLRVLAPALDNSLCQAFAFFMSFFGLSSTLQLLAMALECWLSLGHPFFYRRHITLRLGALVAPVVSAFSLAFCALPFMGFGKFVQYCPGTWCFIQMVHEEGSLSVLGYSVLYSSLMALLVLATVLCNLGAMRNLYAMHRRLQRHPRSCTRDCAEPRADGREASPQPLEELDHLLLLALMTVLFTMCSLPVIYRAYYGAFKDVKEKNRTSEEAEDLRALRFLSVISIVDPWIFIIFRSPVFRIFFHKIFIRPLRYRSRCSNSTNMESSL

EP3 = EP3 (Homo sapiens, UniProt P43115); conditions: cited from earlier work
EP3, sequence (P43115 whole entry): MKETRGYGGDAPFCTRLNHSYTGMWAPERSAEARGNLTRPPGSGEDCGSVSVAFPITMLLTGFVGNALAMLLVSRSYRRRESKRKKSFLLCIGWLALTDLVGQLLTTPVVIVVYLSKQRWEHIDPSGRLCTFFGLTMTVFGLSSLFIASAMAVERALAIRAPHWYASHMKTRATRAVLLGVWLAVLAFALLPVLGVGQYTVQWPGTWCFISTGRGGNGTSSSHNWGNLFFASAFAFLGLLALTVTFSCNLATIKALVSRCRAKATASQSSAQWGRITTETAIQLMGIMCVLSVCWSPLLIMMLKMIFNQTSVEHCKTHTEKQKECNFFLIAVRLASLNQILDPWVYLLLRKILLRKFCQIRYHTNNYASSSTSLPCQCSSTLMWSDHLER

[2] = test system: S. aureus mono-species biofilm; assay: biofilm formation on polystyrene (XTT, CFU); type: cell-based, Staphylococcus aureus
Description: as §1
Following growth as described above, microbes were washed in phosphate-buffered saline (PBS) by centrifugation, counted on a hemocytometer, and adjusted to 2×10^7 CFU/ml in RPMI buffered with MOPS (165 mM). For monomicrobial biofilms, 50 μl of adjusted C. albicans or S. aureus culture was added to each well of a sterile 96-well cell culture polystyrene microtiter plate (1×10^6 CFU per well); to this, 50 μl of sterile RPMI+MOPS was added. For polymicrobial biofilms, 50 μl of each organism was added per well (1×10^6 CFU of each organism per well). Plates were incubated for 24 h at 37° C. to induce biofilm formation. Following confirmation of mature biofilm growth by macro- and microscopic examination, plates were washed once with 200 μl sterile saline and then 200 μl RPMI+MOPS containing L-161, 982 at various concentrations (6.25-200 μg/ml) added to each well. L-161, 982-free RPMI+MOPS was added to wells with and without microbes to serve as positive and negative controls, respectively. […]
as §2

For `CCCCc1nn(-c2ccccc2C(F)(F)F)c(=O)n1Cc1ccc(-c2ccccc2S(=O)(=O)NC(=O)c2sccc2C)cc1` [L-161, 982, N-[[4′-[[3-Butyl-1,5-dihydro-5-oxo-1-[2-(trifluoromethyl)phenyl]-4H-1,2,4-triazol-4-yl]methyl][1,1′-biphenyl]-2-yl]sulfonyl]-3-methyl-2-thiophenecarboxamide], the “effect on PGE2-induced cell proliferation” value (HCA-7 colon cancer cells) is listed as “blocks PGE2-induced cell proliferation”, the “hemolytic activity, zones of clearance on blood agar” value (S. aureus strain 43300) is listed as “significantly reduced zones of clearance” and the “metabolic activity during biofilm formation” value [1] is listed as “no significant inhibition”. For the same molecule, the ATP production (S. aureus) was “significantly inhibited ATP production”, the Ki (DP) was 5.1 µM and the Ki (EP3) was 1.9 µM. The “CFUs of S. aureus, biofilm formation” value ([2]; 6.25 to 25 μg/ml) was “significantly reduced”, the “metabolic activity (XTT) during biofilm formation” value ([2]; all concentrations tested, 24 h) was “significantly inhibited” and the “CFUs of S. aureus, biofilm formation” value ([2]; concentrations >50 μg/ml) was “no viable cells were recovered”.
